One compound from patent US9237750B2, “Ornidazole and related compounds for use as herbicides” (RAMOT AT TEL-AVIV UNIVERSITY LTD., priority 2012, dated 2016) can be followed below.

For experiment [1], the system named is Phaeodactylum tricornutum. In words: Net O2 exchange (photosynthesis and respiration), O2 electrode. Format: cell-based, Phaeodactylum tricornutum (Diatoms). The protocol:
The cyanobacterium Anabaena PCC7120 was grown in BG-11 medium as was previously described (Marcus Y, et al., 2005. J Bacteriol 187, 4222-4228). The green eukaryotic alga Dunaliella salina was grown on a medium described by Ben-Amotz and Avron (Ben-Amotz A and Avron M 1983. Plant Physiol 72, 593-597), under 20 μmol photons m^−2 sec^−1 at 30° C. The aquatic plant Lemna was collected from an open pond at the Botanical garden of Tel Aviv University. Seedlings of Avena sterilis were grown in pots in a greenhouse. The marine diatom Phaeodactylum tricornutum was grown as described in Haimovich-Dayan et al. (Haimovich-Dayan M. et al. 2012. New Phytol 195:177-185).
The rate of net O2 exchange was determined using a Clark-type O2 electrode (Rank Brothers Ltd, UK). Fluorescent measurements (quantum yield, photochemical and non photochemical quenching) were determined using a modulated fluorometer (PAM, Walz, Germany) as described by Schreiber et al. (Schreiber U et al., 1986. fluorometer. Photosynth Res 10, 51-62) and Snir et al. (Snir A, et al., 2006. Photosynth Res 90, 233-242).
The algae Anabaena PCC7120 (Cyanobacteria), Dunaliella salina (Chlorophyta) and Phaeodactylum tricornutum (Diatoms) were each grown in its suitable medium as described hereinabove towards the mid logarithmic phase. 1 mM Ornidazole was then added to the medium for 5 min, and respiration and photosynthesis were measured for at least 10 min.

In experiment [2] the test system is Sedoheptulose bisphosphatase. In words: Calvin cycle enzyme activity. The experiment is classed as biochemical, Anabaena. Particulars: 1 mM Ornidazole. The protocol: (§1) Rubisco was assayed as described by Marcus et al. (2005, ibid) and Snir et al. (2006, ibid). Phospho-ribulose kinase was assayed by conversion of phospho-ribulose to RuBP, which was determined by Rubisco dependent carboxylation with radiolabeled ^14CO2. Plant or cyanobacterial extract was incubated with medium containing 50 mM Hepes pH 8, 10 mM MgCl2, 20 mM NaH^14CO3, 1 mM DTT, 0.5 mM ribose-5-phosphate, ribose-5-phosphate isomerase and activated Rubisco. Phosphoglycerate kinase, GAPDH, FBPase and SBPase were determined as described by Leegood (Leegood R C., 1990. In: Methods in plant biochemistry, Vol 3, pp 15-37, Academic Press).
(§2) However, analysis of Ornidazole effect on various enzymes of the Calvin cycle in Anabaena including ribulose-bisphosphate carboxylase/oxygenase (Rubisco), phosphoglycerate kinase, glyceraldehyde-3-phosphate dehydrogenase (GAPDH), triose-phosphate isomerase, aldolase, fructose and sedoheptulose bisphosphatase and phosphoribulose kinase, has shown inhibition of GAPDH and triose-phosphate isomerase (Table 2).

In a further experiment the target is T1, Rubisco (Nostoc sp., UniProt P00879).
T1 construct: endogenous in cells; host or cells: Anabaena PCC7120 extract
Nature of the experiment: Calvin cycle enzyme activity. Format: biochemical, Anabaena. Particulars: 1 mM Ornidazole. The protocol:
as §1, §2

The test system of another experiment is Phosphoribulose kinase. Nature of the experiment: Calvin cycle enzyme activity. Format: biochemical, Anabaena. Particulars: 1 mM Ornidazole. The protocol:
as §1, §2

A further experiment relates to Aldolase. In words: Calvin cycle enzyme activity. Format: biochemical, Anabaena. Particulars: 1 mM Ornidazole. The protocol:
as §1, §2

The test system of the next experiment is Fructose bisphosphatase. In words: Calvin cycle enzyme activity. Particulars: 1 mM Ornidazole. The experiment is classed as biochemical, Anabaena. The protocol:
as §1, §2

A further experiment relates to GAPDH. In words: Calvin cycle enzyme activity. The experiment is classed as biochemical, Anabaena. As to conditions: 1 mM Ornidazole. The protocol:
as §1, §2

For another experiment, the target named is T2, Phosphglycerate kinase (Nostoc sp., UniProt Q8YPR1).
T2 construct: endogenous in cells; host or cells: Anabaena PCC7120 extract
T2 sequence (Q8YPR1 1-400): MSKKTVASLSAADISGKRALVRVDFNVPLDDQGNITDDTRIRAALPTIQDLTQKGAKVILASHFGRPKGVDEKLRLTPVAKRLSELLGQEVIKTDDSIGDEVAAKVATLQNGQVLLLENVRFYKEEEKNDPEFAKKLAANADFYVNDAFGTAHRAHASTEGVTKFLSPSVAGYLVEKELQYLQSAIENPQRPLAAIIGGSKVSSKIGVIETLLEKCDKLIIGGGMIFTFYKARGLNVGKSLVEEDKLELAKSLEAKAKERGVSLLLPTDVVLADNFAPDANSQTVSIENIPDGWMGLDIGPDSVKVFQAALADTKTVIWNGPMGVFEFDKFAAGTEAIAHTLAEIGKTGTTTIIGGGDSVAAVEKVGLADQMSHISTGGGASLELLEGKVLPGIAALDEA
Nature of the experiment: Calvin cycle enzyme activity. Format: biochemical, Anabaena. Particulars: 1 mM Ornidazole. The protocol: as §1, §2

For experiment [3], the target named is T3, Triose phosphate isomerase (Nostoc sp., UniProt Q8YP17).
T3 sequence (Q8YP17 1-241): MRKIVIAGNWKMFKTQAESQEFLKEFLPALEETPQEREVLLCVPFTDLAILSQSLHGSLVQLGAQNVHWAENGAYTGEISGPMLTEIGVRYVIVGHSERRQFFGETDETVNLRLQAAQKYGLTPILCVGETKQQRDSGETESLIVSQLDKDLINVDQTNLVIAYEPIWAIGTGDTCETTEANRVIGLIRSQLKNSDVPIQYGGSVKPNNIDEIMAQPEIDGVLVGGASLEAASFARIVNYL
In words: Calvin cycle enzyme activity. The experiment is classed as biochemical, Anabaena. Details: endogenous in cells; host or cells: Anabaena PCC7120 extract. Particulars: 1 mM Ornidazole. The protocol: as §1, §2

For experiment [4], the target named is T3, Triose phosphate isomerase. Nature of the experiment: Enzyme activity in lysed Anabaena spheroplasts treated with 0 to 2 mM Ornidazole. Format: cell-based, Anabaena PCC7120. Also on record: endogenous in cells; host or cells: Anabaena PCC7120 spheroplasts, lysed after treatment. As to conditions: 30° C. The protocol: Filaments of Anabaena PCC7120 were incubated in a medium containing: 0.5 M sucrose, 10 mM MgCl2, 5 mM Potassium Phosphate, 10 mM MES buffer pH 6.9, 1% (weight/volume) BSA and 1 mg/ml Lysozyme for 30 to 60 min. at 30° C. The spheroplasts yield was monitored by lysis in hypotonic solution. The spheroplasts were spun down and resuspended in a medium containing 0.4 M Mannitol, 10 mM MgCl2, 5 mM Potassium Phosphate and 20 mM Hepes buffer pH 8.0.
To further examine the effect of Ornidazole on these enzymes, the rate of photosynthesis of Anabaena spheroplasts, incubated in a spheroplast medium under saturating light intensity and CO2 concentrations in the presence of 0 to 2 mM Ornidazole at 30° C. was determined, using an O2 electrode. GAPDH and triose-phosphate isomerase activities were determined spectrophotometrically in the spheroplasts upon lysis (200 to 300 μg chlorophyll) using a reaction medium as described in the Materials and Methods section hereinabove.
A clear correlation was found between the reduced activity of triose phosphate isomerase and the declined rate of photosynthesis.

[5] abbreviates: Phaeodactylum tricornutum, 1 mM Ornidazole added for 5 min.

Structures are written as SMILES.

Broadly, the inhibition is the change of the read-out against control, counted positive when it falls. A low value points to a response near the control. In the case of `Cc1ncc([N+](=O)[O-])n1CC(O)CCl` (stereo not drawn) [Ornidazole, 1-chloro-3-(2-methyl-5-nitro-1H-imidazol-1-yl)propan-2-ol], the Photosynthesis in [1] (setting [5]) is on record as −4.33 μmol O2 mg^−1 chl h^−1. Moreover, in experiment [1] (setting [5]), the Respiration is −67.14 μmol O2 mg^−1 chl h^−1. The “effect on respiration rate” value in [1] (Phaeodactylum, 1 mM) was “stimulated the respiration rate”. The effect on photosynthesis result in [1] (Phaeodactylum, higher concentrations (than 1 mM) or longer incubation time) was “abolished photosynthesis”. The Activity in [2] was found to be 62 μmol × mg^−1chl × h^−1; on Rubisco it was 74.6 μmol × mg^−1chl × h^−1; in the experiment on Phosphoribulose kinase, 66.7 μmol × mg^−1chl × h^−1; with Aldolase it was 120 μmol × mg^−1chl × h^−1; in the experiment with Fructose bisphosphatase, 71 μmol × mg^−1chl × h^−1; in the experiment with GAPDH, 1.77 μmol × mg^−1chl × h^−1. Moreover, the Activity at Phosphglycerate kinase was found to be 57 μmol × mg^−1chl × h^−1; in experiment [3] (Triose phosphate isomerase), 0 μmol × mg^−1chl × h^−1. Further, the “inhibition of enzyme activity” value in the experiment with GAPDH is 98%-100. The inhibition at 1000 µM in [3] (triose-phosphate isomerase) lay within 98 to 100%. Besides, in [4], the “inhibition of triose phosphate isomerase compared to GAPDH” value was “inhibited at lower concentrations of Ornidazole and in a concentration-dependent manner”.
